In patent US20250183494A1, “Standardized Bioflavonoid Composition for Regulation of Homeostasis of Host Defense Mechanism” (priority 2021, published 2025):
Several values for one entry are separate records, joined by “and”; a condition that tells them apart may be missing. Identical values can stand only once.

Legend:
[1] = test system: LPS-induced endotoxemia and sepsis; assay: LPS-induced sepsis model, survival (UP446 study); assay type: in vivo, CD-1 mice
From the text: This model used survival rate of animals as the end point measurement (Wang et al., 1999). Lipopolysaccharide (LPS) is an integral component of the outer membrane of gram-negative bacteria and a major contributing factor in the initiation of a generalized inflammatory process that may lead to endotoxin shock. It is a state mediated principally by macrophages/monocytes and is attributed to excessive production of several early phase cytokines such as TNF-α, IL-1, IL-6 and gamma interferon (IFN-γ) as well as a late-stage mediator, HMGB1. Following a median lethal dose of LPS (25 mg/kg) administration dissolved in phosphate-buffered saline (PBS; Lifeline, Lot #07641), animals develop endotoxemia and HMGB1 would be detected in the serum at 8 hours and reach to a peak and plateau levels from 16 to 32 hours after LPS. If untreated, mice would start to die within 24 hours. In the current study, we monitored the mice for 4 days after LPS injection. […] The following groups were included in the study:
In this model, mice were pretreated with bioflavonoid composition—UP446, illustrated in the Example 4, for a week (7 days) before lethal dose intraperitoneal injection of LPS (E. coli, 055:B5; Sigma, St. Louis, MO; Lot #081275) at 25 mg/kg with a 10 mL/kg PBS volume. Animals were observed hourly. Given the fact that sodium butyrate improved LPS-induced injury in mice through suppression of HMGB1 release, we chose this compound as a positive control for our study (Li et al., 2018).

IL-1β = assay: LPS-induced acute lung injury, serum IL-1β ELISA; assay type: in vivo, Sprague Dawley rats; conditions: UP446 250 mg/kg, SB 500 mg/kg
Experimental: The presence of IL-1β in undiluted rat serum was measured using the Rat IL-1β Quantikine ELISA kit from RandD Systems (product #: RLB00) as follows: undiluted serum was added to a microplate coated with IL-1β antibody. […] The washing was repeated, and enzyme substrate was added to the plate.

[2] = test system: LPS-induced acute lung injury; assay: LPS-induced acute lung injury, lung histopathology (H&E); assay type: in vivo, Sprague Dawley rats; conditions: UP446 high dose 250 mg/kg, Sodium Butyrate 500 mg/kg
Experimental: The severity of lung damage as a result of intratracheal LPS was assessed using HandE-stained lung tissue. The left lobe of the lung was used for the histopathology analysis.

TNF-α = assay: LPS-induced acute lung injury, serum TNF-α ELISA; assay type: in vivo, Sprague Dawley rats; conditions: UP446 250 mg/kg, SB 500 mg/kg
Experimental: The presence of TNF-α in undiluted rat serum was measured using the rat TNF-α Quantikine ELISA kit from RandD Systems (product #: RTA00) as follows: undiluted serum was added to a microplate coated with TNF-α antibody. […] The washing was repeated, and enzyme substrate was added to the plate.

LPS-induced sepsis = LPS-induced sepsis model, composition vs constituents, Colby synergy; assay type: in vivo, CD-1 mice
Experimental: On the 8th day, mice were injected intraperitoneally (i.p.) with 25 mg/kg LPS dissolved in PBS at 10 mL/kg. Mice in the UP894-II-treated group received a daily dose of UP894-II at 250 mg/kg. All mice continued to receive the treatment daily for the duration of study, which was completed on the 6th day post LPS injection. Following a median lethal dose of LPS (25 mg/kg) by i.p. administration, animals are expected to develop sepsis within a few hours. If untreated, mice would start to die within 24 hours. Animals were observed hourly. In the current study, we monitored the mice for 6 days after LPS injection.
For the blending of these plant extracts to have unexpected synergy, the observed inhibition needs to be greater than the calculated value.
The LPS-induced survival study was utilized to evaluate possible synergy or unexpected effects of extracts from Scutellaria and Acacia, when formulated together in a specific ratio, using Colby's method.

[3] = cumulative, LPS 25 mg/kg i.p., UP446 250, Sodium Butyrate 500 mg/kg oral, N=8
[4] = SB 500, UP894-II 250, RM405 200, RM406 50 mg/kg
[5] = SB 500, UP894-II 250, RM405 200, RM406 50 mg/kg, listed as SB
[6] = per interval, SB 500, UP894-II 250, RM405 200, RM406 50 mg/kg oral, N=13

SMILES: CCCC(=O)[O-].[Na+] [Sodium Butyrate]
- Survival rate ([1]; 48 hours after LPS injection, UP446 250, SB 500 mg/kg): half of the animals were deceased
- # of Death after LPS, 24 hr [1, 3]: 2
- # of Death after LPS, 32 hr [1, 3]: 3
- # of Death after LPS, 34 hr [1, 3]: 3
- # of Death after LPS, 48 hr [1, 3]: 4
- # of Death after LPS, 58 hr [1, 3]: 4
- # of Death after LPS, 72 hr [1, 3]: 4
- # of Death after LPS, 82 hr [1, 3]: 4
- Reduction in serum IL-1β level vs vehicle (IL-1β): 65.3%
- Infiltration of PMN cell, score 0-4 [2]: 2.75 ± 0.78
- Overall Lung Damage Severity, score 0-4 [2]: 3.05 ± 0.42
- Pulmonary Edema, score 0-4 [2]: 2.35 ± 0.95
- Reduction in serum TNF-α level vs vehicle control (TNF-α): 67.9%
- Mortality rate, 0 hr (LPS-induced sepsis; [4]): 0.00%
- Mortality rate, 24 hr post LPS (LPS-induced sepsis; [4]): 15.38%
- Mortality rate, 36 hr post LPS (LPS-induced sepsis; [4]): 46.15%
- Mortality rate, 48 hr post LPS (LPS-induced sepsis; [4]): 53.85%
- Mortality rate, 60 hr post LPS (LPS-induced sepsis; [4]): 61.54%
- Mortality rate, 72 hr post LPS (LPS-induced sepsis; [4]): 61.54%
- Mortality rate, 96 hr post LPS (LPS-induced sepsis; [4]): 69.23%
- Mortality rate, 120 hr post LPS (LPS-induced sepsis; [4]): 69.23%
- Mortality rate, 144 hr post LPS (end of observation) (LPS-induced sepsis; [4]): 69.23%
- Survival rate, 0 hr (LPS-induced sepsis; [4]): 100.0%
- Survival rate, 24 hr post LPS (LPS-induced sepsis; [4]): 84.6%
- Survival rate, 48 hr post LPS (LPS-induced sepsis; [4]): 46.2%
- Survival rate, 60 hr post LPS (LPS-induced sepsis; [4]): 38.5%
- Survival rate, 96 hr post LPS (LPS-induced sepsis; [4]): 30.8%
- Survival rate, 120 hr post LPS (LPS-induced sepsis; [4]): 30.8%
- Survival rate, 144 hr post LPS (end of observation) (LPS-induced sepsis; [4]): 30.8%
- Survival rate, 36 hr post LPS (LPS-induced sepsis; [5]): 53.9% and 53.8%
- Survival rate, 72 hr post LPS (LPS-induced sepsis; [5]): 38.5%
- Number of deceased animals post LPS, 24 hours (LPS-induced sepsis; [6]): 2
- Number of deceased animals post LPS, 36 hours (LPS-induced sepsis; [6]): 4
- Number of deceased animals post LPS, 48 hours (LPS-induced sepsis; [6]): 1
- Number of deceased animals post LPS, 60 hours (LPS-induced sepsis; [6]): 1
- Number of deceased animals post LPS, 72 hours (LPS-induced sepsis; [6]): 0
- Number of deceased animals post LPS, 96 hours (LPS-induced sepsis; [6]): 1
- Number of deceased animals post LPS, 120 hours (LPS-induced sepsis; [6]): 0
- Number of deceased animals post LPS, 144 hours (LPS-induced sepsis; [6]): 0
- Survived (LPS-induced sepsis; through 144 hours post LPS, N=13): 4
